A value given as a limit tells only on which side of the number the result lay.

23 compounds from patent publication US20070099941A1, “N-arylalkyl-thienopyrimidin-4-amines and analogs as activators of caspases and inducers of apoptosis and the use thereof” (Cytovia, Inc., priority 2005, published 2007) can be followed below.

Experiment [1] has as its system human breast cancer cell line T-47D. The experiment can be described thus: Caspase cascade activation assay in T-47D cells. The conditions noted are these: T47D, 24 h or 48 h incubation, read-out: Caspase Activation Potency EC50 T-47D. The experiment is classed as cell-based. As for the experimental part:
(§1) Human breast cancer cell lines T-47D and human lung cancer cell line H1299 were grown according to media component mixtures designated by American Type Culture Collection+10% FCS (Invitrogen Corporation), in a 5% CO2-95% humidity incubator at 37° C. T-47D and H1299 cells were maintained at a cell density between 50 and 80% confluency at a cell density of 0.1 to 0.6×10^6 cells/mL. Cells were harvested at 600×g and resuspended at 0.65×10^6 cells/mL into appropriate media+10% FCS. An aliquot of 22.5 μL of cells was added to a well of a 384-well microtiter plate containing 2.5 μL of a 10% DMSO in RPMI-1640 media solution containing 0.16 to 100 μM of N-(3,4-methylenedioxybenzyl)-6-phenylthieno[3,2-d]pyrimidin-4-amine or other test compound (0.016 to 10 μM final). An aliquot of 22.5 μL of cells was added to a well of a 384-well microtiter plate containing 2.5 μL of a 10% DMSO in RPMI-1640 media solution without test compound as the control sample. The samples were mixed by agitation and then incubated at 37° C. for 24 h or 48 h in a 5% CO2-95% humidity incubator. After incubation, the samples were removed from the incubator and 25 μL of a solution containing 14 μM of N-(Ac-DEVD)-N′-ethoxycarbonyl-R110 (SEQ ID No.:1) fluorogenic substrate (Cytovia, Inc.; WO99/18856), 20% sucrose (Sigma), 20 mM DTT (Sigma), 200 mM NaCl (Sigma), 40 mM Na PIPES buffer pH 7.2 (Sigma), and 500 μg/mL lysolecithin (Calbiochem) was added. The samples were mixed by agitation and incubated at room temperature. Using a fluorescent plate reader (Model SPECTRAfluor Plus, Tecan), an initial reading (T=0) was made approximately 1-2 min after addition of the substrate solution, employing excitation at 485 nm and emission at 530 nm, to determine the background fluorescence of the control sample. After the 3 h incubation, the samples were read for fluorescence as above (T=3 h).
(§2) The Relative Florescence Unit values (RFU) were used to calculate the sample readings as follows: RFU(T=3h)−Control RFU(T=0)=Net RFU(T=3h)
(§3) The activity of caspase cascade activation was determined by the ratio of the net RFU value for N-(3,4-methylenedioxybenzyl)-6-phenylthieno[3,2-d]pyrimidin-4-amine (Example A) or other test compound to that of control samples. The EC50 (nM) was determined by a sigmoidal dose-response calculation (Prism 3.0, GraphPad Software Inc.).

In experiment [2] the test system is human lung cancer cell line H1299. The experiment in a line: Caspase cascade activation assay in H1299 cells. The experiment is classed as cell-based. The following applies: NCI-H1299, 24 h or 48 h incubation, read-out: Caspase Activation Potency EC50 H1299. Here is the method:
as §1, §2, §3

The term EC50 denotes the concentration that produces a half-maximal response. Take `Oc1ccc(CNc2ncnc3cc(Br)sc23)cc1` [Example 24, N-(4-Hydroxybenzyl)-6-bromothieno[3,2-d]-pyrimidin-4-amine]: the EC50 in experiment [1] and in experiment [2] was greater than 10 µM in each case.

Turning to `c1cc(-c2cc3ncnc(NCc4ccc5c(c4)OCO5)c3s2)ccn1` [Example 2, N-(3,4-Methylenedioxybenzyl)-6-(pyridin-4-yl)thieno[3,2-d]pyrimidin-4-amine], the half-maximal effective concentration (EC50) in experiment [1] and in experiment [2] was greater than 10 µM throughout.

As to `c1ncc(-c2cc3ncnc(NCc4ccc5c(c4)OCO5)c3s2)cn1` [Example 13, N-(3,4-Methylenedioxybenzyl)-6-(pyrimidin-5-yl)thieno[3,2-d]pyrimidin-4-amine], the EC50 in experiment [1] turned out to be 5.39 µM; in experiment [2] it was 5.43 µM.

Regarding `COc1cc(OC)c(CNc2ncnc3cc(I)sc23)c(OC)c1` [Example 17, N-(2,4,6-Trimethoxybenzyl)-6-iodothieno[3,2-d]pyrimidin-4-amine], the EC50 in experiment [1] and in experiment [2] was greater than 10 µM throughout.

For the compound `COc1ccc(CNc2ncnc3cc(I)sc23)cc1` [Example 9, N-(4-Methoxybenzyl)-6-iodothieno[3,2-d]pyrimidin-4-amine], the EC50 in experiment [1] and in experiment [2] was greater than 10 µM throughout.

On to `Cc1nc(NCc2ccc3c(c2)OCO3)c2sc(-c3cccnc3)cc2n1` [Example 23, N-(3,4-Methylenedioxybenzyl)-2-methyl-6-(pyridin-3-yl)thieno[3,2-d]pyrimidin-4-amine], for which the EC50 in experiment [1] and in experiment [2] was greater than 10 µM in each case.

As for `c1coc(-c2cc3ncnc(NCc4ccc5c(c4)OCO5)c3s2)c1` [Example 4, N-(3,4-Methylenedioxybenzyl)-6-(furan-2-yl)thieno[3,2-d]pyrimidin-4-amine], the results for the EC50 in experiment [1] and in experiment [2] were 2.43 µM and 2.39 µM, respectively.

Regarding `c1nc(NCc2ccc3c(c2)OCO3)c2sc(-c3ccoc3)cc2n1` [Example 12, N-(3,4-Methylenedioxybenzyl)-6-(furan-3-yl)thieno[3,2-d]pyrimidin-4-amine], the EC50 in experiment [1] is 2.8 µM; in experiment [2], 2.79 µM.

In the case of `Cc1c(-c2ccccc2)sc2c(NCc3ccc4c(c3)OCO4)ncnc12` [Example 8, N-(3,4-Methylenedioxybenzyl)-7-methyl-6-phenylthieno[3,2-d]pyrimidin-4-amine], the EC50 in experiment [1] and in experiment [2] was greater than 10 µM in each case.

For the compound `COc1ccc(CNc2ncnc3cc(-c4ccccc4)sc23)cc1` [Example 10, N-(4-Methoxybenzyl)-6-phenylthieno[3,2-d]pyrimidin-4-amine], the concentration for a half-maximal effect (EC50) amounted to 1.4 µM in experiment [1] and 2.68 µM in experiment [2].

Regarding `Brc1cc2ncnc(NCc3ccc4c(c3)OCO4)c2s1` [Example 11, N-(3,4-Methylenedioxybenzyl)-6-bromothieno[3,2-d]pyrimidin-4-amine], the EC50 in experiment [1] and in experiment [2] was greater than 10 µM in each case.

For the compound `COc1ccc(OC)c(CNc2ncnc3cc(I)sc23)c1` [Example 18, N-(2,5-Dimethoxybenzyl)-6-iodothieno[3,2-d]pyrimidin-4-amine], the EC50 worked out at 2.3 µM in experiment [1] and 2.57 µM in experiment [2].

As to `Oc1ccc(CNc2ncnc3cc(-c4cccnc4)sc23)cc1` [Example 25, N-(4-Hydroxybenzyl)-6-(pyridin-3-yl)thieno[3,2-d]-pyrimidin-4-amine], the EC50 in experiment [1] and in experiment [2] was greater than 10 µM throughout.

Regarding `COc1cc(OC)c(CNc2ncnc3cc(-c4cccnc4)sc23)c(OC)c1` [Example 19, N-(2,4,6-Trimethoxybenzyl)-6-(pyridin-3-yl)thieno[3,2-d]pyrimidin-4-amine], the EC50 in experiment [1] worked out at 5.13 µM; in experiment [2], 2.89 µM.

With `COc1ccc(CNc2ncnc3cc(I)sc23)c(OC)c1` [Example 16, N-(2,4-Dimethoxybenzyl)-6-iodothieno[3,2-d]pyrimidin-4-amine], the EC50 in experiment [1] came to 1.29 µM; in experiment [2] it was 2.87 µM.

With `Cc1nc(NCc2ccc3c(c2)OCO3)c2sc(Br)cc2n1` [Example 21, N-(3,4-Methylenedioxybenzyl)-6-bromo-2-methylthieno[3,2-d]pyrimidin-4-amine], the EC50 in experiment [1] and in experiment [2] was greater than 10 µM each time.

For `c1nc(NCc2ccc3c(c2)OCO3)c2sccc2n1` [Example 1, N-(3,4-Methylenedioxybenzyl)-thieno[3,2-d]pyrimidin-4-amine], the EC50 in experiment [1] and in experiment [2] was greater than 10 µM in each case.

For the compound `COc1ccc(CNc2ncnc3cc(I)sc23)cc1OC` [Example 14, N-(3,4-Dimethoxybenzyl)-6-iodothieno[3,2-d]pyrimidin-4-amine], the EC50 came to 4.3 µM in experiment [1] and 5.08 µM in experiment [2].

Regarding `CN(Cc1ccc2c(c1)OCO2)c1ncnc2cc(-c3cccnc3)sc12` [Example 22, N-(3,4-Methylenedioxybenzyl)-N-methyl-6-(pyridin-3-yl)thieno[3,2-d]pyrimidin-4-amine], the EC50 worked out at 0.147 µM in experiment [1] and 0.157 µM in experiment [2].

Consider `c1ccc(-c2cc3ncnc(NCc4ccc5c(c4)OCO5)c3s2)nc1` [Example 6, N-(3,4-Methylenedioxybenzyl)-6-(pyridin-2-yl)thieno[3,2-d]pyrimidin-4-amine], for which the EC50 in experiment [1] was 4.32 µM; in experiment [2] it was 5.1 µM.

`COc1ccc(OC)c(CNc2ncnc3cc(-c4cccnc4)sc23)c1` [Example 20, N-(2,5-Dimethoxybenzyl)-6-(pyridin-3-yl)thieno[3,2-d]pyrimidin-4-amine]: the EC50 in experiment [1] and in experiment [2] was greater than 10 µM in each case.

In the case of `COc1ccc(CNc2ncnc3cc(-c4cccnc4)sc23)cc1OC` [Example 15, N-(3,4-Dimethoxybenzyl)-6-(pyridin-3-yl)thieno[3,2-d]pyrimidin-4-amine], the EC50 in experiment [1] and in experiment [2] was greater than 10 µM in each case.

`Cc1c(I)sc2c(NCc3ccc4c(c3)OCO4)ncnc12` [Example 7, N-(3,4-Methylenedioxybenzyl)-6-iodo-7-methylthieno[3,2-d]pyrimidin-4-amine]: the EC50 in experiment [1] and in experiment [2] was greater than 10 µM throughout.
